Assay [1] has as its target mitochondrial RNA-polymerase (POLRMT) (Mus musculus, UniProt Q8BKF1). The assay can be described thus: Homogeneous TR-FRET assay for mitochondrial transcription activity. The class given is biochemical. To be noted: homogeneous TR-FRET assay according to Example 4; read-out: mitochondrial transcription activity (IC-50). In outline:
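Mouse POLRMT with TFAM and TFB2M transcribes linearized pUC-LSP template after 10 min compound preincubation (10 μM final or dilution series), started with 500 μM each nucleotide, 2 h at RT. EDTA/high-salt stop; RNA product detected by hybridized Eu/ATTO647N probe pair, TR-FRET read at 665 nm (340 nm excitation).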
On the technique in general: TR-FRET usually uses a lanthanide donor and a delayed reading to cut background.

Assay [2] deals with mitochondrial transcription (7S RNA) in HeLa cells. The assay can be described thus: Quantitative real time-PCR assay of inhibition of mitochondrial transcription (7S RNA) in HeLa cells. The settings on record: Homo sapiens, 4 h incubation, Example 5, read-out: cellular qPCR assay IMT (IC-50). It counts as cell-based. Here is the method:
Quantitative real-time PCR (qRT-PCR), based on the TaqMan™ (Thermo Fisher Scientific, Waltham Mass.) technology, was carried out essentially as described in (Heid et al. 1996). HeLa cells were plated one day before compound treatment in RPMI medium supplemented with 10% Fetal Calf Serum and 2 mM L-glutamine. Cells were incubated with dilution series of compounds or vehicle (DMSO) for 4 h, prior to harvest and extraction of the RNA using the RNeasy Mini Kit (Qiagen, Hilden D), according to the manufacturer's instructions. RNA concentrations were measured spectroscopically, using a NanoDrop-2000 (Thermo Fisher Scientific, Waltham Mass.) and normalized prior to cDNA synthesis, using a ‘High-Capacity cDNA Reverse Transcription Kit’ (Thermo Fisher Scientific, Waltham Mass.). qRT-PCR was carried out using the ‘TaqMan Fast Advance Master Mix’ (Thermo Fisher Scientific, Waltham Mass.) on a 7500 Fast Real-Time PCR machine (Applied Biosystems, Foster City Calif.)
For these measurements, three genes were used to compare the effect of the scrutinized compounds in relation to their concentration. The POLRMT-gene was used to detect potential influences on nuclear transcription. Mitochondrial transcription in vivo was monitored by measurements 7S RNA. The TBP (TATA-box binding protein) gene was employed as the control (housekeeping gene) during qRT-PCR. The short-lived mitochondrial 7S RNA, which is not post-transcriptionally stabilized, allowed us to monitor rapid changes in mitochondrial transcription activity following compound addition. Biological triplicates were analyzed using the comparative CT Method (ΔΔCt) method (Bubner et al. 2004) and reported as Rq % values (Rq=Relative quantification=2-ΔΔCt).
Background: Quantitative PCR measures a nucleic acid by following its amplification.

mitochondrial RNA-polymerase (POLRMT), sequence (Q8BKF1 42-1207): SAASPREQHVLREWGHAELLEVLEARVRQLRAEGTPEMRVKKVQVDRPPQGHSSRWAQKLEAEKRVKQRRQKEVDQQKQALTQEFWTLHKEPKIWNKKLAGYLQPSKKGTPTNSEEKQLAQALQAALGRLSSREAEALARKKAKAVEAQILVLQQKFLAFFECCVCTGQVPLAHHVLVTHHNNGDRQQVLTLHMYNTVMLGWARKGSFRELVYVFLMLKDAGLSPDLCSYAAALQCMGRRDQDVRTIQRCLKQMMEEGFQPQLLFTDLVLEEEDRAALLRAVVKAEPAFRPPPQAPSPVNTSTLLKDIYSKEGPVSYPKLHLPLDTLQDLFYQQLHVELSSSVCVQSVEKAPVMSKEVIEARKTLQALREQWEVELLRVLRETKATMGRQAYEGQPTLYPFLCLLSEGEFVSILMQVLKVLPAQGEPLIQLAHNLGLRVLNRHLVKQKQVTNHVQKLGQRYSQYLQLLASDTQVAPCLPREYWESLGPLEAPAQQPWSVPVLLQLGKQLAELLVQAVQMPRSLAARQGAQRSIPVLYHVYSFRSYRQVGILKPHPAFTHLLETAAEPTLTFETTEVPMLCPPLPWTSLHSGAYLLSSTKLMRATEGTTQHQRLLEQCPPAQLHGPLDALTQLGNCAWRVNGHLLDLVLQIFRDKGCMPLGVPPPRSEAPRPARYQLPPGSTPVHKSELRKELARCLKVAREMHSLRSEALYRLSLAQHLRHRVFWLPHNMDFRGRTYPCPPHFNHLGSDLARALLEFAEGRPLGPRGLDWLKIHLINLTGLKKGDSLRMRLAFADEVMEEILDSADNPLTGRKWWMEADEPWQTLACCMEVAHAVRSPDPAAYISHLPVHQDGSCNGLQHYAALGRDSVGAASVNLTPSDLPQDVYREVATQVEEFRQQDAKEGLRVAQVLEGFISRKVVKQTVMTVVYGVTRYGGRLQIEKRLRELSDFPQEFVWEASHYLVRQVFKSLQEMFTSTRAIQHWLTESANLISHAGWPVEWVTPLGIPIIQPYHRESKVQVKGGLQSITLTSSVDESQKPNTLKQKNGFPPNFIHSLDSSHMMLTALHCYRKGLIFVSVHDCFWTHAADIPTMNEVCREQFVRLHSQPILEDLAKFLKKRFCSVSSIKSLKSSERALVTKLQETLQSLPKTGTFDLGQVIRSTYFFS

As for `CCOC(=O)C(C)Oc1ccc2c(-c3ccccc3)cc(=O)oc2c1` (stereo not drawn) [Compound 52, ethyl 2-(2-oxo-4-phenyl-chromen-7-yl)oxypropanoate], the IC50 fell in the range of 100 to 1000 nM in assay [1] and 50 to 500 nM in assay [2].

As for `CCOC(=O)[C@@H](C)Oc1ccc2c(-c3ccccc3)cc(=O)oc2c1` [Compound 33, ethyl (2R)-2-(2-oxo-4-phenyl-chromen-7-yl)oxypropanoate], the IC50 was 100 to 1000 nM in assay [1] and less than 10 nM in assay [2].

For the compound `CC(Oc1ccc2c(-c3ccccc3)cc(=O)oc2c1)C(=O)N1CCCC(C#N)C1` (stereo not drawn) [Compound 19, 1-[2-(2-oxo-4-phenyl-chromen-7-yl)oxypropanoyl]piperidine-3-carbonitrile], the figures for the IC50 in assay [1] and in assay [2] were less than 20 nM and less than 10 nM, respectively.

`CCOC(=O)C(C)(C)Oc1ccc2c(-c3ccccc3)cc(=O)oc2c1` [Compound 32, ethyl 2-methyl-2-(2-oxo-4-phenyl-chromen-7-yl)oxy-propanoate]: the IC50 in assay [1] lay in the range of 100 to 1000 nM; in assay [2] it was 10 to 50 nM.

Take `CC(Oc1ccc2c(-c3ccccc3)cc(=O)oc2c1)C(=O)N1CCCC1` (stereo not drawn) [Compound 31, 7-(1-methyl-2-oxo-2-pyrrolidin-1-yl-ethoxy)-4-phenyl-chromen-2-one]: the IC50 in assay [1] is 100 to 1000 nM; in assay [2], 50 to 500 nM.

`CC(Oc1ccc2c(-c3ccccc3)cc(=O)oc2c1)C(=O)OC(C)(C)C` (stereo not drawn) [Compound 1, tert-butyl 2-(2-oxo-4-phenyl-chromen-7-yl)oxypropanoate]: the IC50 in assay [1] was 100 to 1000 nM; in assay [2], less than 10 nM.

In the case of `CCOC(=O)C(C)Oc1ccc2c(-c3ccc(OC)cc3)cc(=O)oc2c1` (stereo not drawn) [Compound 65, ethyl 2-[4-(4-methoxyphenyl)-2-oxo-chromen-7-yl]oxypropanoate], the values for the IC50 in assay [1] and in assay [2] were 1000 to 10000 nM and 500 to 10000 nM, respectively.

With `CCNC(=O)C(C)Oc1ccc2c(-c3ccccc3)cc(=O)oc2c1` (stereo not drawn) [Compound 30, N-ethyl-2-(2-oxo-4-phenyl-chromen-7-yl)oxy-propanamide], the IC50 in assay [1] is 1000 to 10000 nM; in assay [2], 50 to 500 nM.

Consider `CC(C)NC(=O)C(C)Oc1ccc2c(-c3ccccc3)cc(=O)oc2c1` (stereo not drawn) [Compound 12, N-isopropyl-2-(2-oxo-4-phenyl-chromen-7-yl)oxy-propanamide], for which the IC50 in assay [1] lay in the range of 100 to 1000 nM; in assay [2], 50 to 500 nM.

Values taken from patent US10703735B2, “4-phenyl-coumarin derivatives, processes for their preparation and uses thereof for the treatment of cancer” (Lead Discovery Center GmbH, priority 2018, dated 2020).
